Where no end group is shown, it is not given here.
Assays:
[1] = tested on: rat pituitary adenoma cells, RC-4B/C; assay type: binding
Method: Also, rat pituitary adenoma cells, RC-4B/C cells, were used in the assay of radioligand binding. For the binding displacement, cells were incubated for 30 min with 50 pM 125I-Y0-Phoenixin-20 (amide SEQ. ID NO: 7) in the absence or presence of increasing concentrations of un-labeled Phoenixin-20 amide (amide SEQ. ID NO: 7) or phoenixin-14 amide (amide SEQ. ID NO: 9). Nonspecific binding was defined as total binding in the presence of 1 μM unlabeled Phoenixin-20 amide (amide SEQ. ID NO: 7) or phoenixin-14 amide (amide SEQ. ID NO: 9). After termination of the binding reaction by washing the cells with 1 ml of cold PBS, cells were solubilized with 0.5 ml of 1% SDS, and radioactivity was detected in a gamma counter.

[2] = tested on: rat pituitary adenoma cells, RC-4B/C; assay: cAMP production in pituitary cells (cAMP Biotrak enzyme immunoassay); assay type: cell-based; conditions: 100 nM peptide, 30 min, in presence of IBMX; PBS-control 100% = 4.94±0.5 pmol/mg protein
Method: Rat pituitary adenoma cells, RC-4B/C (CRL-1903; ATCC, Manassas, VA, USA), were cultured in Dulbecco's Modified Eagle's Medium and Minimum Essential Alpha Medium (Invitrogen, CA, USA) supplemented with 0.01 mM non-essential amino acids, 15 mM HEPES, 2.5 ng/ml epidermal growth factor, and dialyzed, heat-inactivated fetal bovine serum (“FBS”) at 37° C. in a humidified cell incubator containing 5% carbon dioxide (“CO2”). After 2 days of cell cultured in 24 wells plate, cell were equilibrated for 2 hours in serum-free medium and then incubated with 0.1 mM 3-isobutyl-1-methylxanthine (“IBMX”) in serum-free medium 30 min again. Then, cells were challenged with either 100 nM of […]-NH2 (SEQ. ID NO: 7), DVQPPGLKVWSDPFG (SEQ. ID NO: 3), DVQPPGLKVWSDPF-NH2 (SEQ. ID NO: 9), or a PBS-control in the presence of IBMX and incubated for 30 min. After incubation, supernatant medium was then aspirated and the cells in each well were extracted by 70% cold ethanol. Alcohol was evaporated in a vacuum concentrator (PN: AES 2000, Savant, Hicksvile, NY, USA) Thereafter, cAMP content was determined by using a cAMP Biotrak enzyme immunoassay kit (GE healthcare-Amersham, Piscataway, NJ, USA) in accordance with the protocol of the manufacturer.

[3] = tested on: antibodies raised to AGIVQEDVQPPGLKVWSDPF-NH2 (SEQ. ID NO: 7); assay: RIA/EIA cross-reactivity of anti-phoenixin antibodies; assay type: binding; conditions: RIA or EIA
Method: Homogenates were prepared from heart tissues of adult rats. The supernatant of the rat heart homogenates were passed through C18 column extraction cartridges and P6 gel filtration to further purify native peptide candidates. The immunoreactive fractions as determined by conventional enzyme immunoassay (“EIA”) in which labeled chemically synthesized peptides as described above compete with unlabeled native phoenixin peptide for a limited quantity of the anti-phoenixin peptide antibodies, produced as above described. The label can be biotin complex which by reaction with streptavidin horseradish peroxidase and sequent reaction of the horseradish peroxidase with colormetric or fluorescence substrates can be quantitated. […]
Homogenates of porcine or bovine or rat tissue of heart, lung, kidney, spinal cord, small intestine, liver, pancreas, hypothalamus, spleen, and thymus were prepared as above-described and the resulting fractions were processed by the above-described peptides extraction procedure and were assayed by radio-immunoassay (“[…]”) or Enzyme Immunoassay (EIA) using antibodies raised to […]-NH2 (SEQ. ID NO: 7). […] Protein concentrations were determined by bicinchoninic acid (“BCA”) protein assay in accordance to the protocol of the manufacturer Thermo Scientific, Rockford, Illinois using bovine serum albumin (“BSA”) as a standard. […]

Substance	IC50 [1] [µM]	increase of intracellular cAMP production over the PBS control [2]	cross-reactive with antibodies raised to SEQ. ID NO: 7 [3]
AGIVQEDVQPPGLKVWSDPF-NH2 [SEQ. ID NO: 7, phoenixin (1-20) amide]	0.0215	greater than two fold and even three-fold	
DVQPPGLKVWSDPF-NH2 [SEQ. ID NO: 9, phoenixin (7-20) amide]	0.0179	greater than two fold and even three-fold	100%
phoenixin (7-21) (DVQPPGLKVWSDPFG; listed as Homo sapiens) [SEQ. ID NO: 3]		greater than two fold and even three-fold	less than 0.5%
